Data taken from patent US20130344140A1, “NOVEL PHARMACEUTICAL COMBINATIONS AND METHODS FOR TREATING CANCER” (Agency for Science, Technology and Research, priority 2011, published 2013).

Assays:
Type in all cases: cell-based
HCT116 p53−/− cells = test: Cell cycle analysis of HCT116 p53−/− cells (nutlin-3, VX-680); conditions: 200 nM VX-680, later time points (40 and 48 h), compared with p53+/+
Protocol: (a) is a comparison of the DNA profiles of P53+/+ and p53−/− cells after treatment with VX-680. HCT116 p53+/+ and p53−/− cells were incubated with 200 nM VX-680 and cells were harvested at the indicated time points for analysis of cell cycle distribution.
(b) is a comparison of the DNA profiles of p53+/+ and p53−/− cells with pre-treatment of Nutlin before incubation with VX-680.

[1] = system: A549 cells transfected with p53-specific siRNA; test: Cell cycle analysis of A549 cells transfected with p53 siRNA and exposed to VX-680; conditions: A549 with p53 siRNA knockdown, exposed to VX-680
Protocol: (B) Extent of endoreduplication is exacerbated in cells with compromised p53 functions. A549 cells transfected with p53 siRNA (Dharmacon pool) were incubated with VX-680 (200 nM) for the indicated time periods after transfection. […] DNA-dependent cell cycle analysis was performed using flow cytometry.
p53 siRNA oligo 1 (p53si) 5′-[…] GCGUCUU-3′ (SEQ ID NO: 9), cyclin A2 siRNA 5′-[…]-3′ (SEQ ID NO: 10) and cyclin B1 siRNA 5′-[…]-3′ were from Dharmacon (Lafayette, Colo., USA) (SEQ ID NO:11). Cells were plated in six-well dishes overnight in antibiotic-free media. Cells were incubated with Optimen (GIBCO) for an hour before transfection using Lipofectamine 2000 (Invitrogen) and siRNA (30 nM) according to the manufacturer's recommendation. Cells were either harvested at 48 h after transfection or incubated with VX-680 for another 48 h before analysis.

[2] = system: A375, U2OS, A549, HCT116 p53+/+, HCT116 p53−/−, MDA-MB-486 and H1299 cells; test: Cell cycle distribution (propidium iodide flow cytometry) in a panel of tumor-derived cell lines after VX-680; conditions: 200 nM VX-680; harvested at 24, 48 and 72 h; p53 wild-type, mutant and deleted lines
Protocol: (a) p53-positive cells (A375, U2OS, A549 and HCT116 p53+/+) and (b) p53-compromised cells (HCT116 p53−/−, […] and H1299) were treated with 200 nM VX-680 and harvested at the indicated time points. Analysis of cell cycle distribution using propidium iodide staining was performed using flow cytometry. Representative DNA profiles are shown. DNA content is indicated. No DNA profile was shown for cells that are 100% apoptotic.
p53 has been implicated in a postmitotic G1 checkpoint in response to various mitotic inhibitors. We examined whether this checkpoint is induced after aurora kinase inhibition by VX-680 and whether tetraploidy is suppressed by wild-type p53 functions. Using a panel of commonly used tumor-derived cell lines expressing either wild-type p53, mutant p53 or a deletion at the p53 gene locus (Table 1), we tested the correlation of p53 gene status to VX-680-induced endoreduplication. These cell lines were treated with VX-680, and harvested for cell cycle analysis at 24, 48 and 72 h.

A549 cells = test: Colony survival assay, A549; conditions: A549, VX-680 treatment alone, 48 h
Protocol: Colonies were counted 2 weeks after recovery in drug-free media. Cells were fixed with glutaraldehyde and stained with crystal violet. Plates are scanned and colonies were counted with an automated image analyzer. Three independent experiments were performed for each cell line.
Each data point represents the mean±S.D.
A total of 1000 cells were plated on each 10 cm plate and allowed to adhere overnight. […] After 48 h, cells were washed and recovered in fresh media for 12 days. Cells were then fixed in 6% glutaraldehyde (Sigma) and stained with crystal violet. Colonies were counted using GelCount™ (Oxford Optronix, Oxford, England). Each condition was carried out in triplicate.

SMILES: Cc1cc(Nc2cc(N3CCN(C)CC3)nc(Sc3ccc(NC(=O)C4CC4)cc3)n2)[nH]n1 [VX-680, cyclopropane carboxylic acid of {4-[4-(4-methyl-piperazin-1-yl)-6-(5-methyl-2H-pyrazol-3-ylamino)-pyrimidin-2-ylsulphanyl]-phenyl}-amide]
- endoreduplication (HCT116 p53−/− cells): Increased endoreduplication
- cells with 16n DNA content [1]: > 15%
- endoreduplication [2]: all tumor cell lines undergo endoreduplication
- number of colonies (A549 cells): drastically reduced
